Values joined by “and” are separate entries in the source; they are usually repeats but may differ in a detail not shown here. Equal values may be shown once. “Also recorded” adds a separate entry of the source. Read-outs that look alike come from different tables or passages of the source.
What was measured:
[1] = test system: pseudotyped reporter viruses carrying the NL4-3 gag-pol sequence (wild type); assay type: cell-based, HIV-1
[2] = in vivo; cited from earlier work
[3] = test system: Pt2019-1-1 patient-derived drug-resistant HIV-1 isolate; assay type: cell-based
[4] = test system: Pt2019-1-2 patient-derived drug-resistant HIV-1 isolate; assay type: cell-based

Cc1cn([C@H]2C=C[C@@H](CO)O2)c(=O)[nH]c1=O [d4T, stavudine]
% GFP-positive target cells [1]: 6.83% and 7.04% and 5.74% | Cmax relative to IC50 measured in this system [1]: close to or below; also recorded: below | Drug resistance index (replication with drug / without drug) [1]: 0.325 | Mean % GFP-positive target cells [1]: 6.54%

Cc1cn([C@H]2C[C@H](N=[N+]=[N-])[C@@H](CO)O2)c(=O)[nH]c1=O [AZT, zidovudine]
% GFP-positive target cells [1]: 7.61% and 6.70% and 7.59% and 6.71% | Drug resistance index (replication with drug / without drug) [1]: 0.356 | Mean % GFP-positive target cells [1]: 7.15%

O=c1[nH]cnc2c1ncn2[C@H]1CC[C@@H](CO)O1 [ddI, didanosine]
Cmax relative to IC50 measured in this system [1]: close to or below | Cmax relative to IC90 measured in this system [1]: below | Cmax [2]: 6.78 µM

O=C1Nc2ccc(Cl)cc2[C@@](C#CC2CC2)(C(F)(F)F)O1 [EFV, efavirenz]
Cmin/IC50 ratio (published Cmin to IC50 measured in this system) [1]: > 1,000 fold

Nc1ccn([C@@H]2CS[C@H](CO)O2)c(=O)n1 [3TC, lamivudine]
Drug Resistance Index [1]: 0.002 | Replication Index (replication capacity index x drug resistance index) [1]: 0.002 | Drug Resistance Index [3]: 1 | Replication Index ([3]; Pt2019-1-1, concn 12.5 (head prints p.M)): 0.42 | Drug Resistance Index ([3]; Pt2019-1-1, concn 12.5 (head prints p.M; text 12.5 μM)): 0.8 | Replication Index ([4]; concn 12.5 (head prints p.M)): 0.00053 | Drug Resistance Index ([4]; concn 12.5 (head prints p.M; text 12.5 μM)): 0.001

— patent US7468274B2, “Single cell analysis of HIV replication capacity and drug resistance” (priority 2004, dated 2008)
